From patent US12427212B2, “Nectin-4 binding miniproteins, conjugates and uses thereof” (Aktis Oncology, Inc., priority 2023, dated 2025)
Bridges are numbered along the chain shown (N, C = ends). Primed or numbered codes have the meaning given here. [ ]: non-standard residue; d: D form. The star is where a group is joined. Arg(NO2) = N=C(NCCC[C@H](N)C(=O)O)N[N+](=O)[O-]; Biotin = O=C1N[C@H]2[C@H](CS[C@H]2CCCCC(=O)*)N1; Lys(Me3) = C[N+](C)(C)CCCC[C@H](N)C(=O)O; Lys(iPr) = CC(C)NCCCC[C@H](N)C(=O)O; Lys(Me2) = CN(C)CCCC[C@H](N)C(=O)O; Cit = NC(=O)NCCC[C@H](N)C(=O)O; Lys(Me) = CNCCCC[C@H](N)C(=O)O; PEG4 = NCCOCCOCCOCCOCCC(=O)O; PEG4″ = 4(ethylene glycol); PEG4′ = not defined here

System: not listed separately
Assay: in vivo
Conditions: Sprague Dawley, rat, iv
Procedure: To begin, double jugular vein-cannulated Sprague Dawley rats were dosed with bolus intravenous injections of miniproteins (0.03-0.3 mg/kg) and FITC-sinistrin. Nine blood collection timepoints were taken from 0-2 h, processed to plasma with K2 EDTA, and were frozen for subsequent bioanalysis. Plasma miniprotein concentrations were measured by LC-MS/MS. To control for inter-animal renal clearance differences, and to compare with glomerular filtration rate (GFR), the miniprotein was co-formulated with a molecular marker of GFR, FITC-sinistrin (FS) (Pill et al., 2005). Plasma FITC-sinistrin was measured fluorometrically. All unknown sample measurements were interpolated against known authentic standards spiked into normal rat plasma to calculate concentration. Finally, non-compartmental analysis was performed to estimate plasma pharmacokinetic parameters.

Q: With `CC[C@H](C)[C@@H]1NC(=O)[C@H](Cc2ccc(O)cc2)NC(=O)[C@H](CC(=O)O)NC(=O)[C@@H]2CSSC[C@@H](C(=O)N[C@@H](CO)C(=O)O)NC(=O)CNC(=O)[C@H](CC(C)C)NC(=O)[C@H](CC(N)=O)NC(=O)[C@H](CC(=O)O)NC(=O)[C@H](CC(C)C)NC(=O)[C@H]([C@@H](C)CC)NC(=O)[C@H](CCC(=O)O)NC(=O)[C@H](CCC(=O)O)NC(=O)[C@H]([C@@H](C)CC)NC(=O)[C@H](CSSC[C@H](NC(=O)CCOCCOCCOCCOCCNC(=O)CN3CCN(CC(=O)O)CCN(CC(=O)O)CCN(CC(=O)O)CC3)C(=O)N[C@@H](CCC(=O)O)C(=O)N[C@@H](Cc3ccc(O)cc3)C(=O)N[C@@H](CC(=O)O)C(=O)N[C@@H](CCC(=O)O)C(=O)N[C@@H](CCC(N)=O)C(=O)N[C@@H](Cc3ccccc3)C(=O)N[C@@H](Cc3ccccc3)C(=O)N[C@@H]([C@@H](C)O)C(=O)N[C@@H](C)C(=O)N[C@@H](CC(C)C)C(=O)N[C@@H](CCCCN)C(=O)N[C@@H](CCCNC(=N)N)C(=O)N[C@@H](CC(C)C)C(=O)N[C@@H](CCCNC(=N)N)C(=O)NCC(=O)N[C@@H](CC(=O)O)C(=O)N[C@@H](CC(=O)O)C(=O)N[C@@H]([C@@H](C)CC)C(=O)N2)NC(=O)[C@H](CC(C)C)NC(=O)CNC(=O)[C@@H]2CCCN2C(=O)[C@H](CC(C)C)NC(=O)[C@H](Cc2ccc(O)cc2)NC(=O)[C@H](CCC(N)=O)NC(=O)[C@H](Cc2ccccc2)NC(=O)[C@H](CO)NC(=O)[C@H](C)NC(=O)[C@H](CCC(N)=O)NC1=O` [Compound C237] as the compound, how does the half-life read?
A: 28.4 min

System: Opossum kidney proximal tubule cells
Assay: Proximal tubule epithelial cell uptake assay
Type: cell-based
Conditions: Table 10A; mean percent uptake in opossum kidney cells, 1 h at 37° C., relative to control miniprotein C306
Procedure: FIG. 8 is a bar graph of the percent uptake of exemplary miniproteins tested at 20 µM in a proximal tubule epithelial cell assay vs 20 μM control peptide set at 100%. […]
Opossum kidney proximal tubule cells were plated in the upper chamber of 24-well transwell plates containing 600 μL of growth media in the lower chamber and were incubated overnight at 37° C., in 5% CO2. The following day, the media was changed, and cells were incubated an additional 24 h with orbital shaking at 146 RPM. Next, cells were washed and treated in duplicates with biotinylated exemplary miniproteins pre-complexed with streptavidin-AF647 for 1 h at 37° C., and 5% C02 with continuous orbital shaking. Following incubation, cells were washed three times with 1×PBS and lysed with RIPA buffer containing protease and phosphatase inhibitor cocktail and a universal nuclease for 30 minutes. Uptake was measured on 100 μL of lysates using a fluorimeter. Mean % uptake values of control miniprotein C306 in the presence of exemplary miniproteins are provided in TABLE 10A and summarized in FIG. 8.
Uptake of engineered Nectin-4 miniproteins with further modified lysine residues (C298-C304, as described in Example 4B) was evaluated. Percent uptake of these exemplary Nectin-4-targeting miniproteins and C251 were determined against a control miniprotein, C306, using opossum kidney proximal tubule cells as described in Example 18A. Percent uptake of C298, which has an unmodified lysine (K) at amino acid position 26 (along the length of the miniprotein sequence. SEQ ID NO: 162), was 37% in the presence of […]. All other miniproteins having a modified lysine (modified with one or more small alkyl groups of monomethyl, dimethyl, trimethyl, or isopropyl group) had (i) kidney uptake similar to that of C251 and (ii) reduced uptake as compared to C298, which has an unmodified lysine at position 26.

Q: For “C257: exemplary Nectin-4 miniprotein compound ({Biotin-PEG4″}-CDYDEQFFTALKRLRGADICEYIQA[Lys(Me3)]FQYLPGECIEEILDNLGCS-OH; disulfide 1-34, 20-44) [Compound C257]”, which “% Uptake of C306 (Control)” value is on record?
A: 7.99%

Q: With “C262: exemplary Nectin-4 miniprotein compound ({Biotin-PEG4″}-CEYDEQFFTALARLRGADICEYIQA[Lys(Me3)]FQYLPGLCIEEILDNLGCS-OH; disulfide 1-34, 20-44) [Compound C262]” as the compound, how does the “% Uptake of C306 (Control)” value read?
A: 1.27%

Q: For “C281 ({Biotin-PEG4′}-CEYDEQFFTALARLRGGDICEYIQA[Cit]FQYLPGLCIEEILDNLGCS-OH; disulfide 1-34, 20-44) [Compound C281]”, which “% Uptake of C306 (Control)” value is on record?
A: 0.006%

Q: With “C282 ({Biotin-PEG4″}-CEYDEQFFTALARLRGGDICEYIQA[Arg(NO2)]FQYLPGLCIEEILDNLGCS-OH; disulfide 1-34, 20-44) [Compound C282]” as the compound, how does the “% Uptake of C306 (Control)” value read?
A: 2.14 (n = 1) %

Q: Which “% Uptake of C306 (Control)” value does the source give for “C306: control miniprotein of the proximal tubule cell uptake assay ({Biotin-PEG4′}-CEYDEEFFTALKRLRGGDICYYIKKKFKKVPKLCIEEILDKLGC-NH2; disulfide 1-34, 20-44) [Compound C306, reference compound]” here?
A: 100%

Q: With “{Biotin-PEG4}-CEYDEQFFTALARLRGGDICEYIQARFQYLPGLCIEEILDNLGCS-OH (disulfide 1-34, 20-44) [Compound C264]” as the compound, how does the “% Uptake of C306 (Control)” value read?
A: 0.859%

Same assay, conditions: Table 10B; opossum kidney proximal tubule cells, relative to control miniprotein C306; modified lysine miniproteins

Q: Which “% Uptake of C306” value does the source give for `CC[C@H](C)[C@@H]1NC(=O)[C@H](Cc2ccc(O)cc2)NC(=O)[C@H](CCC(N)=O)NC(=O)[C@@H]2CSSC[C@@H](C(=O)N[C@@H](CO)C(=O)O)NC(=O)CNC(=O)[C@H](CC(C)C)NC(=O)[C@H](CC(N)=O)NC(=O)[C@H](CC(=O)O)NC(=O)[C@H](CC(C)C)NC(=O)[C@H]([C@@H](C)CC)NC(=O)[C@H](CCC(=O)O)NC(=O)[C@H](CCC(=O)O)NC(=O)[C@H]([C@@H](C)CC)NC(=O)[C@H](CSSC[C@H](NC(=O)CCOCCOCCOCCOCCNC(=O)CCCC[C@@H]3SC[C@@H]4NC(=O)N[C@@H]43)C(=O)N[C@@H](CCC(=O)O)C(=O)N[C@@H](Cc3ccc(O)cc3)C(=O)N[C@@H](CC(=O)O)C(=O)N[C@@H](CCC(=O)O)C(=O)N[C@@H](CCC(=O)O)C(=O)N[C@@H](Cc3ccccc3)C(=O)N[C@@H](Cc3ccccc3)C(=O)N[C@@H]([C@@H](C)O)C(=O)N[C@@H](C)C(=O)N[C@@H](CC(C)C)C(=O)N[C@@H](C)C(=O)N[C@@H](CCCNC(=N)N)C(=O)N[C@@H](CC(C)C)C(=O)N[C@@H](CCCNC(=N)N)C(=O)NCC(=O)NCC(=O)N[C@@H](CC(=O)O)C(=O)N[C@@H]([C@@H](C)CC)C(=O)N2)NC(=O)[C@H](CC(C)C)NC(=O)[C@H](C)NC(=O)[C@@H]2CCCN2C(=O)[C@H](CC(C)C)NC(=O)[C@H](Cc2ccc(O)cc2)NC(=O)[C@H](CCC(N)=O)NC(=O)[C@H](Cc2ccccc2)NC(=O)[C@H](CCCCN(C)C)NC(=O)[C@H](C)NC(=O)[C@H](CCC(N)=O)NC1=O` [Compound C300] here?
A: 3%

Q: With `CC[C@H](C)[C@@H]1NC(=O)[C@H](Cc2ccc(O)cc2)NC(=O)[C@H](CCC(N)=O)NC(=O)[C@@H]2CSSC[C@@H](C(=O)N[C@@H](CO)C(=O)O)NC(=O)CNC(=O)[C@H](CC(C)C)NC(=O)[C@H](CC(N)=O)NC(=O)[C@H](CC(=O)O)NC(=O)[C@H](CC(C)C)NC(=O)[C@H]([C@@H](C)CC)NC(=O)[C@H](CCC(=O)O)NC(=O)[C@H](CCC(=O)O)NC(=O)[C@H]([C@@H](C)CC)NC(=O)[C@H](CSSC[C@H](NC(=O)CCOCCOCCOCCOCCNC(=O)CCCC[C@@H]3SC[C@@H]4NC(=O)N[C@@H]43)C(=O)N[C@@H](CCC(=O)O)C(=O)N[C@@H](Cc3ccc(O)cc3)C(=O)N[C@@H](CC(=O)O)C(=O)N[C@@H](CCC(=O)O)C(=O)N[C@@H](CCC(=O)O)C(=O)N[C@@H](Cc3ccccc3)C(=O)N[C@@H](Cc3ccccc3)C(=O)N[C@@H]([C@@H](C)O)C(=O)N[C@@H](C)C(=O)N[C@@H](CC(C)C)C(=O)N[C@@H](C)C(=O)N[C@@H](CCCNC(=N)N)C(=O)N[C@@H](CC(C)C)C(=O)N[C@@H](CCCNC(=N)N)C(=O)NCC(=O)NCC(=O)N[C@@H](CC(=O)O)C(=O)N[C@@H]([C@@H](C)CC)C(=O)N2)NC(=O)[C@H](CC(C)C)NC(=O)[C@H](C)NC(=O)[C@@H]2CCCN2C(=O)[C@H](CC(C)C)NC(=O)[C@H](Cc2ccc(O)cc2)NC(=O)[C@H](CCC(N)=O)NC(=O)[C@H](Cc2ccccc2)NC(=O)[C@H](CCCCNC(C)C)NC(=O)[C@H](C)NC(=O)[C@H](CCC(N)=O)NC1=O` [Compound C301] as the compound, how does the “% Uptake of C306” value read?
A: 3%

Q: Which “% Uptake of C306” value does the source give for “{Biotin-PEG4}-CEYDEEFFTAL[Lys(Me2)]RLRGGDICQYIQA[Lys(Me3)]FQYLPALCIEEILDNLGCS-OH (disulfide 1-34, 20-44) [Compound C303]” here?
A: 3%

Q: With “{Biotin-PEG4}-CEYDEEFFTAL[Lys(Me)]RLRGGDICQYIQA[Lys(Me3)]FQYLPALCIEEILDNLGCS-OH (disulfide 1-34, 20-44) [Compound C302]” as the compound, how does the “% Uptake of C306” value read?
A: 2%

Q: Which “% Uptake of C306” value does the source give for “{Biotin-PEG4}-CEYDEEFFTAL[Lys(iPr)]RLRGGDICQYIQA[Lys(Me3)]FQYLPALCIEEILDNLGCS-OH (disulfide 1-34, 20-44) [Compound C304]” here?
A: 2%
